Source: the SangsterLogP compilation

Assays:
[1] = method code SF, from DOI: 10.1016/0006-2952(79)90295-8, PMID: 36087
[2] = method code SF, from PMID: 7274411
[3] = method code SF-AS, from DOI: 10.1135/cccc19831077; details: pH 3.5
[4] = method code SF, from PMID: 25193232; details: pH 7.4
[5] = method code SF-HPLC, from PMID: 9554875; details: pH 6.8
[6] = method code SF-HPLC, from DOI: 10.1039/a702469j; details: pH 7.0
[7] = method code SF-HPLC, from DOI: 10.1016/0378-5173(90)90303-l; details: pH 7.4
[8] = method code SF, from DOI: 10.1016/0168-3659(92)90078-6; details: pH 7.0
[9] = not given; remark: listed apart in the source
[10] = method code SF-HPLC, from DOI: 10.1016/0378-5173(89)90028-8
[11] = method code SF-AS, from DOI: 10.1021/jm00040a014, PMID: 8035429; details: pH 7.4
[12] = method code SF-HPLC, from DOI: 10.1023/a:1011018730459, PMID: 11451042
[13] = not given; remark: listed apart in the source
[14] = method code SF-RC, from DOI: 10.1021/jf60186a044, PMID: 4688915
[15] = method code SF-HPLC, from DOI: 10.1080/01483919108049396; details: pH 7.0
[16] = method code SF-AS, from DOI: 10.1016/j.bmc.2004.10.037, PMID: 15653345
[17] = method code SF-HPLC, from DOI: 10.1023/a:1015902024664, PMID: 2235895; details: pH 7.0
[18] = not given; remark: listed apart in the source
[19] = method code SF-HPLC, from DOI: 10.1016/0378-5173(90)90181-3; details: pH 7.4
[20] = method code SF, from Yoshimoto, M. (1982). Quantitative structure-activity relationships and structure patterns of drugs. SankyoÌ„ KenkyuÌ„jo nenpoÌ„ (Annual report of Sankyo Research Laboratories), 34, 1-38.
[21] = not given; remark: listed apart in the source
[22] = method code SF, from Wang, L.; Li, H.; Wang, X.; Zhang, Z. (1993). Determination of aqueous solubilities and partition coefficients of substitutive ethylketone congeners by generator column. Huanjing Huaxue, 12(2)151-154.
[23] = method code SF-RC, from DOI: 10.1002/ps.2780410303; details: pH 2.8
[24] = not given; remark: listed apart in the source
[25] = method code SF, from DOI: 10.1007/bf01610114, PMID: 6839039

## CC(=O)NCc1cccc(OCC(O)CNC(C)C)c1 (stereo unspecified)
[1]
  logP: 0.34

## O=C1CN=C(c2ccccc2)c2cc([N+](=O)[O-])ccc2N1
[2]; pH 8.0
  logD: 2.06

## O=C(O)Cc1ccc(OCCCc2ccccc2)c(Cl)c1
[3]
  logD: 3.9

## O=C(NOCCO)c1ccn2cncc2c1Nc1ccc(I)cc1F
[4]
  logD: 2.05

## CCOCCOCCOc1ccc2c(c1)c(-c1ccccc1)nc(=O)n2C
other
  logP: 1.84

## Cc1cn(C2C=CC(COP3(=O)OCc4cc([N+](=O)[O-])ccc4O3)O2)c(=O)[nH]c1=O (stereo unspecified)
[5]
  logD: 0.18

## CCOP(=O)(OCC)C(C)(C)[N+]([O-])=Cc1ccccn1
[6]
  logD: 0.68

## CCC(=O)OCOC(=O)c1cc(S(N)(=O)=O)c(Cl)cc1NCc1ccco1
[7]
  logD: 2.9

## CC(C)(C)C(=O)OCC1CCC(n2cnc3c(O)ncnc32)O1 (stereo unspecified)
[8]
  logD: 0.6

## CCN(CC)C(=O)COC(=O)c1cc(S(N)(=O)=O)c(Cl)cc1NCc1ccco1
[7]
  logD: 2.45

## Clc1ccc(C(Cn2ccnc2)OCc2ccsc2Cl)c(Cl)c1 (stereo unspecified)
[9]
  logP: 4.7

## CCC(=O)OCOC(=O)c1cn(CC)c2nc(C)ccc2c1=O
[10]
  logP: 1.7

## O=C(O)Cc1ccc(OCc2ccccc2)c(Cl)c1
[3]
  logD: 3.43

## CCOP(=O)(CC(=O)OCC1OC(n2ccc(N)nc2=O)CS1)OCC (stereo unspecified)
[11]
  logD: 0.48

## O=C(OCC1OC(n2cnc3c(NC4CCCC4)ncnc32)C(O)C1O)C1CCCCC1 (stereo unspecified)
[12]
  logP: 2.95

## Cc1cc(Cl)c(Cc2cc(Cl)ccc2Cl)cc1Cl
[13]
  logP: 6.51

## CCOc1ccc(C(c2ccc(C)cc2)C(Cl)(Cl)Cl)cc1 (stereo unspecified)
[14]
  logP: 3.96

## COc1cccc2c1OP(=O)(OC[C@@H]1C=C[C@H](n3cc(C)c(=O)[nH]c3=O)O1)OC2 (stereo partly specified)
[5]
  logD: 0.15

## O=C(Nc1ncnc2c1ncn2[C@H]1C[C@H](O)[C@@H](CO)O1)c1ccccc1
[15]
  logD: 0.22

## OCCN1CCN(Cc2ccc(O)c3ncccc23)CC1
[16]
  logP: 0.54

## CCOP(=O)(OCC)C(=O)CCCCNc1ccn(C2CSC(CO)O2)c(=O)n1 (stereo unspecified)
[11]
  logD: 1.21

## CCCCCCC(O)(Cn1ccnc1)c1ccc(Cl)cc1Cl (stereo unspecified)
[9]
  logP: 5.2

## OC(Cn1ccnc1)(Cn1cncn1)c1ccc(Cl)cc1Cl (stereo unspecified)
[9]
  logP: 1.6

## COc1ccc(C(c2ccc(SC)cc2)C(Cl)(Cl)Cl)cc1 (stereo unspecified)
[14]
  logP: 2.9

## CCOC(=O)c1cc(S(N)(=O)=O)c(Cl)cc1NCc1ccco1
[7]
  logD: 2.67

## CCn1cc(C(=O)OCOC(=O)C(C)C)c(=O)c2ccc(C)nc21
[10]
  logP: 2.17

## O=C(Nc1ccn(C2OC(CO)C(O)C2O)c(=O)n1)c1ccccc1 (stereo unspecified)
[15]
  logD: 0.3

## O=C(NOC[C@H](O)CO)c1ncc2cncn2c1Nc1ccc(I)cc1F
[4]
  logD: 1.1

## CCCCCCCCCC(=O)OC[C@H]1O[C@@H](n2cc(C)c(=O)[nH]c2=O)C[C@@H]1N=[N+]=[N-]
[17]
  logD: 4.45

## OC1(c2cccc(Cl)c2)c2ccccc2C2=NCCN21 (stereo unspecified)
[18]
  logP: 1.85

## CCCCC(=O)OCC1OC(n2cnc3c(NC4CCCC4)ncnc32)C(O)C1O (stereo unspecified)
[12]
  logP: 2.79

## CC(O)CONC(=O)c1ncc2cncn2c1Nc1ccc(I)cc1F (stereo unspecified)
[4]
  logD: 2.2

## CCOP(=O)(OCC)C(=O)OCC1OC(n2ccc(NC(C)=O)nc2=O)CS1 (stereo unspecified)
[11]
  logD: 0.65

## Cc1cc(CC(=O)O)ccc1OCc1ccccc1
[3]
  logD: 3.37

## O=C(OCn1ncc2c(=O)[nH]cnc21)c1cccc(CN2CCOCC2)c1
[19]
  logD: 1.12

## OC1(c2cccc(Br)c2)c2ccccc2C2=NCCN21 (stereo unspecified)
[18]
  logP: 1.97

## Cc1cc(Cl)c(Cl)cc1Cc1ccc(Cl)cc1Cl
[13]
  logP: 6.43

## Cc1cn(C2C=CC(COP3(=O)OCc4cc(Cl)ccc4O3)O2)c(=O)[nH]c1=O (stereo unspecified)
[5]
  logD: 0.88

## CCC(C)SCC(=O)NC1(OC)C(=O)N2C(C(=O)O)=C(COC(N)=O)CSC21 (stereo unspecified)
[20]
  logP: -1.38

## C/N=C1/CN(O)C(c2ccccc2)=c2cc(Cl)ccc2=N1
[2]; pH 8.0
  logD: 2.12

## CCCCCC(=O)OC[C@H]1O[C@@H](n2cc(C)c(=O)[nH]c2=O)C[C@@H]1N=[N+]=[N-]
[17]
  logD: 2.45

## CN1CCN(CCCN2c3ccccc3Sc3ccc(C(F)(F)F)cc32)CC1
[21]
  logP: 4.71

## O=C(CSc1ccccc1)c1ccc(Cl)cc1
[22]
  logP: 2.69

## CNC(=O)COc1ccc(OCC(O)CNC(C)C)cc1 (stereo unspecified)
[1]
  logP: 0.56

## O=C(CSc1ccccc1)c1ccccc1
[22]
  logP: 1.88

## CCCCc1cnc(C2=NC(C)(C(C)C)C(=O)N2)c(C(=O)O)c1 (stereo unspecified)
[23]
  logD: 1.99

## COC1(NC(=O)CSc2nncs2)C(=O)N2C(C(=O)O)=C(COC(N)=O)CSC21 (stereo unspecified)
[20]
  logP: -1.95

## CCOP(=O)(OCC)C(C)(C)[N+]([O-])=Cc1ccc([N+](=O)[O-])cc1
[6]
  logD: 1.43

## Cc1ccc(SCC(=O)c2ccccc2)cc1
[22]
  logP: 2.46

## COC1(NC(=O)CSc2nc3c[nH]cnc-3n2)C(=O)N2C(C(=O)O)=C(COC(N)=O)CSC21 (stereo unspecified)
[20]
  logP: -1.72

## CC(C)C(=O)OCC1CCC(n2cnc3c(O)ncnc32)O1 (stereo unspecified)
[8]
  logD: 0.02

## OC(CNCC(O)COc1ccccc1)COc1ccccc1 (stereo unspecified)
[24]
  logP: 2.52

## CCN1CCN(Cc2ccc(OC)c(OC)c2OC)CC1
[21]
  logP: 1.69

## CN1C(=O)CN=C(c2ccccc2F)c2cc([N+](=O)[O-])ccc21
[2]; pH 4.0
  logD: 2.05

## CNC(=O)COc1cccc(OCC(O)CNC(C)C)c1 (stereo unspecified)
[1]
  logP: 0.35

## O=C(OCn1ncc2c(=O)[nH]cnc21)c1ccc(CN2CCOCC2)cc1
[19]
  logD: 1.13

## O=C(Nc1ncnc2c1ncn2[C@@H]1O[C@H](CO)[C@@H](O)[C@H]1O)c1ccccc1
[15]
  logD: -0.1

## CCCC(C)C(=O)OCC1CCC(n2cnc3c(O)ncnc32)O1 (stereo unspecified)
[8]
  logD: 1

## CCOP(=O)(OCC)C(C)(C)[N+]([O-])=Cc1ccc(Cl)cc1
[6]
  logD: 2.44

## CCOC(=O)C(CS)NCc1ccc(O)c2ncccc12 (stereo unspecified)
[16]
  logP: 0.21

## C#CCN(C)Cc1ccc(O)c2ncccc12
[16]
  logP: 1.92

## CCn1cc(C(=O)OCOC(C)=O)c(=O)c2ccc(C)nc21
[10]
  logP: 1.21

## CCCC(=O)OC[C@H]1O[C@@H](n2cc(C)c(=O)[nH]c2=O)C[C@@H]1N=[N+]=[N-]
[17]
  logD: 1.5

## OC[C@H]1O[C@@H](n2cnc3c(NC4CCCC4)ncnc32)[C@H](O)[C@@H]1O
[12]
  logP: 1.21

## CCCCCOC(=O)c1ccccc1C(=O)OCCCCC
[25]
  logP: 4.85

## CC(=O)Nc1ccc(OCC(O)CNCC(O)COc2ccccc2)cc1 (stereo unspecified)
[24]
  logP: 1.39

## OC1(c2cccc(I)c2)c2ccccc2C2=NCCN21 (stereo unspecified)
[18]
  logP: 2.3

## CC(C)(C)NC[C@H](O)COc1nsnc1N1CCOCC1
[24]
  logP: 1.98

## Cc1cc(Cc2ccc(Cl)c(Cl)c2)c(Cl)cc1Cl
[13]
  logP: 6.51

## Cn1c(=O)nc(-c2ccccc2)c2ccccc21
other
  logP: 1.79

## CC(C)OC(=O)c1ccccc1C(=O)OC(C)C
[25]
  logP: 2.83

## CCN(CC)CCCC(C)Nc1c2ccc(Cl)cc2nc2ccc(OC)cc12 (stereo unspecified)
[21]
  logP: 5.09

## CSc1ccc(C(c2ccc(SC)cc2)C(Cl)(Cl)Cl)cc1
[14]
  logP: 3.85

## O=C(OCn1ncc2c(=O)[nH]cnc21)c1cccc(Cn2ccnc2)c1
[19]
  logD: 0.97

## Cn1c(=O)nc(-c2ccccc2)c2cc(O)ccc21
other
  logP: 1.72

## CC(C)COC(=O)c1ccccc1C(=O)OCC(C)C
[25]
  logP: 4.11
